{"source": "patent US11242541B2", "about": "“Skeletal muscle cells and method for inducing same” (KYOTO PREFECTURAL PUBLIC UNIVERSITY CORPORATION, priority 2016, dated 2022)", "key": {"[1]": {"test_system": "human fibroblasts", "assay": "Multinucleation of ML-infected cells with or without ERK5 pathway inhibitor (Example 13)", "assay_type": "cell-based", "conditions": "addition of 2-5 μM inhibitor, 14 days after infection", "experimental": "(§1) In the same manner as in Example 12, human fibroblasts were infected with both a retrovirus vector incorporating MyoD1 gene and a retrovirus vector incorporating L-myc gene (ML). As a control, cells free of infection with a retrovirus vector were also prepared (−). A ERK5 pathway inhibitor, XMDB-92, was added at the indicated concentration to some groups. These were cultured in a myoblast differentiation medium in the same manner as in Example 12. 14 days after infection, nuclear staining was performed in the same manner as in Example 3. Images taken using a fluorescence microscope (Keyence BZ710) are shown (FIG. 13A, upper panel). In addition, the percentages of cells having 4 or more nuclei, cells having 2-3 nuclei and cells having one nucleus were calculated (FIG. 13A, lower panel)."}, "[2]": {"test_system": "human fibroblasts", "assay": "Real-time RT-PCR of Myogenin, CKM, Dystrophin mRNA with ERK5 pathway inhibitor (Example 13)", "assay_type": "cell-based", "conditions": "ML-infected cells with inhibitor, 14 days after infection", "experimental": "as §1\nIn addition, 14 days after infection, RNA was extracted from the cells. As a control, RNA was also extracted from the primary human skeletal muscle cells (pSKMs). mRNAs of Myogenin, CKM, Dystrophin were quantified by real time RT-PCR."}}, "data": [{"compound": "CCOc1cc(N2CCC(O)CC2)ccc1Nc1ncc2c(n1)N(C)c1ccccc1C(=O)N2C", "note": "[XMD8-92]", "values": [{"measurement": "percentage of cells having 2-3 nuclei", "setting": "[1]", "value": "21-23%"}, {"measurement": "percentage of cells having not less than 4 nuclei", "setting": "[1]", "value": "10-12%"}, {"measurement": "induction of expression of Myogenin, CKM, Dystrophin mRNA by ML gene transfer", "setting": "[2]", "value": "not suppressed"}]}]}
